According to US11166460B2, “α-amino acrylate microbicide, and preparation method therefor and uses thereof” (priority 2017, dated 2021):
Like-named read-outs stand apart in the source and are kept apart here.

What was measured:
[1] = system: tobacco mosaic virus (TMV); assay: Anti-TMV curative activity (treatment mode), live friction inoculation on tobacco seedlings; assay type: in vivo; conditions: Tobacco mosaic virus, read-out: Anti-TMV activity, Curative effect (inhibition), 100 μg/mL, tobacco seedlings, checked on seventh day
[2] = system: tobacco mosaic virus (TMV); assay: Anti-TMV inactivation activity (inactivation mode), compound mixed with TMV before inoculation of tobacco leaves; assay type: in vivo; conditions: Tobacco mosaic virus, read-out: Anti-TMV activity, Inactivation effect (inhibition)
[3] = system: tobacco mosaic virus (TMV); assay: Anti-TMV protective activity (protection mode), live friction inoculation on tobacco seedlings; assay type: in vivo; conditions: Tobacco mosaic virus, read-out: Anti-TMV activity, Protection effect (inhibition)
[4] = system: tobacco mosaic virus (TMV); assay: Anti-TMV inducing activity (induction mode), tobacco seedlings; assay type: in vivo; conditions: Tobacco mosaic virus, read-out: Anti-TMV activity, Induction effect (inhibition), 100 μg/mL, tobacco seedlings
Alternaria solani = assay: Fungicidal activity, fungi growth rate method, AS; assay type: cell-based; conditions: Alternaria solani; 50 μg/mL; read-out: Fungicidal activity, inhibition, AS
Botrytis cinerea = assay: Fungicidal activity, fungi growth rate method, BC; assay type: cell-based; conditions: Botrytis cinerea; 50 μg/mL; read-out: Fungicidal activity, inhibition, BC
Cercospora arachidicola = assay: Fungicidal activity, fungi growth rate method, CA; assay type: cell-based; conditions: Mycosphaerella arachidis; 50 μg/mL; read-out: Fungicidal activity, inhibition, CA
wheat Gibberella zeae = assay: microbe, parasite or virus in culture; assay type: cell-based; conditions: Fusarium graminearum, read-out: Fungicidal activity, inhibition, GZ
[5] = system: Phytophthora infestans (Mont) de Bary; assay: microbe, parasite or virus in culture; assay type: cell-based; conditions: Phytophthora infestans, read-out: Fungicidal activity, inhibition, PI
Physalospora piricola = assay: Fungicidal activity, fungi growth rate method, PP; assay type: cell-based; conditions: 50 μg/mL; read-out: Fungicidal activity, inhibition, PP
Pellicularia sasakii = assay: Fungicidal activity, fungi growth rate method, PS; assay type: cell-based; conditions: 50 μg/mL; read-out: Fungicidal activity, inhibition, PS
Rhizoctonia cerealis = assay: Fungicidal activity, fungi growth rate method, RC; assay type: cell-based; conditions: Ceratobasidium cereale; 50 μg/mL; read-out: Fungicidal activity, inhibition, RC
Sclerotinia sclerotiorum = assay: microbe, parasite or virus in culture; assay type: cell-based; conditions: Sclerotinia sclerotiorum, 50 μg/mL
[6] = read-out: Fungicidal activity (inhibition) against SS: Sclerotinia sclerotiorum
[7] = read-out: Fungicidal activity, inhibition, SS

Compound: COc1ccc(CNC(=O)/C(=C/c2ccccc2)NC(=O)c2ccccc2)cc1 [Compound 54, N-[(1Z)-2-phenyl-1-[[(4-methoxyphenylmethyl)amino]carbonyl]ethenyl]benzamide]
- inhibition at 100 µg/mL [1]: 49%
- inhibition at 100 µg/mL [2]: 28%
- inhibition at 100 µg/mL [3]: 0%
- inhibition at 100 µg/mL [4]: 0%
- inhibition at 50 µg/mL (Alternaria solani): 16%
- inhibition at 50 µg/mL (Botrytis cinerea): 12%
- inhibition at 50 µg/mL (Cercospora arachidicola): 16%
- inhibition at 50 µg/mL (wheat Gibberella zeae): 42%
- inhibition at 50 µg/mL [5]: 2%
- inhibition at 50 µg/mL (Physalospora piricola): 13%
- inhibition at 50 µg/mL (Pellicularia sasakii): 17%
- inhibition at 50 µg/mL (Rhizoctonia cerealis): 17%
- inhibition at 50 µg/mL (Sclerotinia sclerotiorum; [6]): 60 to 80%
- inhibition at 50 µg/mL (Sclerotinia sclerotiorum; [7]): 75%
- melting point: 138 to 140 °C

Compound: O=C(NC(Cc1ccccc1)C(=O)N1CCC(c2ccccc2)CC1)c1ccccc1 (stereo not drawn) [Compound 48, N-[1-[[4-(4-phenyl)-1-piperidinyl]carbonyl]-2-phenylethyl]benzamide]
- inhibition at 100 µg/mL [1]: 25%
- inhibition at 100 µg/mL [2]: 32%
- inhibition at 100 µg/mL [3]: 2%
- inhibition at 100 µg/mL [4]: 27%
- inhibition at 50 µg/mL (Alternaria solani): 18%
- inhibition at 50 µg/mL (Botrytis cinerea): 17%
- inhibition at 50 µg/mL (Cercospora arachidicola): 9%
- inhibition at 50 µg/mL (wheat Gibberella zeae): 11%
- inhibition at 50 µg/mL [5]: 23%
- inhibition at 50 µg/mL (Physalospora piricola): 14%
- inhibition at 50 µg/mL (Pellicularia sasakii): 17%
- inhibition at 50 µg/mL (Rhizoctonia cerealis): 11%
- inhibition at 50 µg/mL (Sclerotinia sclerotiorum; [7]): 64%
- melting point: 143 to 144 °C

Compound: O=C(NCc1ccc(C(F)(F)F)cc1)/C(=C/c1ccccc1)NC(=O)c1ccccc1 [Compound 57, N-[(1Z)-2-phenyl-1-[[(4-trifluoromethylphenylmethyl)amino]carbonyl]ethenyl]benzamide]
- inhibition at 100 µg/mL [1]: 52%
- inhibition at 100 µg/mL [2]: 61%
- inhibition at 100 µg/mL [3]: 4%
- inhibition at 100 µg/mL [4]: 0%
- inhibition at 50 µg/mL (Alternaria solani): 16%
- inhibition at 50 µg/mL (Botrytis cinerea): 10%
- inhibition at 50 µg/mL (Cercospora arachidicola): 4%
- inhibition at 50 µg/mL (wheat Gibberella zeae): 31%
- inhibition at 50 µg/mL [5]: 0%
- inhibition at 50 µg/mL (Physalospora piricola): 0%
- inhibition at 50 µg/mL (Pellicularia sasakii): 19%
- inhibition at 50 µg/mL (Rhizoctonia cerealis): 10%
- inhibition at 50 µg/mL (Sclerotinia sclerotiorum; [7]): 50%
- melting point: 167 to 168 °C

Compound: CC(C)(C)OC(=O)N1CCC(c2nc(C(=O)NCC(=O)O)cs2)CC1 [Compound 65, N-[[4-[2-[4-(1-Boc-piperidine)]thiazol]]formyl]ethanoic acid]
- inhibition at 100 µg/mL [1]: 0%
- inhibition at 100 µg/mL [2]: 40%
- inhibition at 100 µg/mL [3]: 39%
- inhibition at 100 µg/mL [4]: 38%
- inhibition at 50 µg/mL (Alternaria solani): 9%
- inhibition at 50 µg/mL (Botrytis cinerea): 10%
- inhibition at 50 µg/mL (Cercospora arachidicola): 10%
- inhibition at 50 µg/mL (wheat Gibberella zeae): 16%
- inhibition at 50 µg/mL [5]: 18%
- inhibition at 50 µg/mL (Physalospora piricola): 3%
- inhibition at 50 µg/mL (Pellicularia sasakii): 9%
- inhibition at 50 µg/mL (Rhizoctonia cerealis): 10%
- inhibition at 50 µg/mL (Sclerotinia sclerotiorum; [7]): 67%
- melting point: 183 to 185 °C

Compound: CC(C)(C)OC(=O)N1CCC(c2nc(/C=C3\N=C(c4ccccc4)OC3=O)cs2)CC1 [Compound 73]
- inhibition at 100 µg/mL [1]: 0%
- inhibition at 100 µg/mL [2]: 59%
- inhibition at 100 µg/mL [3]: 11%
- inhibition at 100 µg/mL [4]: 8%
- inhibition at 50 µg/mL (Alternaria solani): 36%
- inhibition at 50 µg/mL (Botrytis cinerea): 10%
- inhibition at 50 µg/mL (Cercospora arachidicola): 16%
- inhibition at 50 µg/mL (wheat Gibberella zeae): 23%
- inhibition at 50 µg/mL [5]: 24%
- inhibition at 50 µg/mL (Physalospora piricola): 19%
- inhibition at 50 µg/mL (Pellicularia sasakii): 20%
- inhibition at 50 µg/mL (Rhizoctonia cerealis): 24%
- inhibition at 50 µg/mL (Sclerotinia sclerotiorum; [6]): 80 to 95%
- inhibition at 50 µg/mL (Sclerotinia sclerotiorum; [7]): 89%
- melting point: 189 to 191 °C

Compound: COc1ccc(C(=O)N/C(=C\c2ccccc2)C(=O)N2CCC(O)(c3ccc(Br)cc3)CC2)cc1 [Compound 5, (Z)-N-[1-[[4-(4-bromophenyl)-4-hydroxy-1-piperidinyl]carbonyl]-2-phenylethenyl]-4-methoxybenzamide]
- inhibition at 100 µg/mL [1]: 1%
- inhibition at 100 µg/mL [2]: 49%
- inhibition at 100 µg/mL [3]: 48%
- inhibition at 100 µg/mL [4]: 2%
- inhibition at 50 µg/mL (Alternaria solani): 13%
- inhibition at 50 µg/mL (Botrytis cinerea): 13%
- inhibition at 50 µg/mL (Cercospora arachidicola): 9%
- inhibition at 50 µg/mL (wheat Gibberella zeae): 11%
- inhibition at 50 µg/mL [5]: 18%
- inhibition at 50 µg/mL (Physalospora piricola): 7%
- inhibition at 50 µg/mL (Pellicularia sasakii): 13%
- inhibition at 50 µg/mL (Rhizoctonia cerealis): 7%
- inhibition at 50 µg/mL (Sclerotinia sclerotiorum; [6]): 60 to 80%
- inhibition at 50 µg/mL (Sclerotinia sclerotiorum; [7]): 80%
- melting point: 195 to 197 °C

Compound: O=C(NCc1ccc(F)cc1)/C(=C/c1ccccc1)NC(=O)c1ccccc1 [Compound 55, N-[(1Z)-2-phenyl-1-[[(4-fluorophenylmethyl)amino]carbonyl]ethenyl]benzamide]
- inhibition at 100 µg/mL [1]: 45%
- inhibition at 100 µg/mL [2]: 59%
- inhibition at 100 µg/mL [3]: 0%
- inhibition at 100 µg/mL [4]: 4%
- inhibition at 50 µg/mL (Alternaria solani): 28%
- inhibition at 50 µg/mL (Botrytis cinerea): 12%
- inhibition at 50 µg/mL (Cercospora arachidicola): 10%
- inhibition at 50 µg/mL (wheat Gibberella zeae): 34%
- inhibition at 50 µg/mL [5]: 19%
- inhibition at 50 µg/mL (Physalospora piricola): 21%
- inhibition at 50 µg/mL (Pellicularia sasakii): 12%
- inhibition at 50 µg/mL (Rhizoctonia cerealis): 12%
- inhibition at 50 µg/mL (Sclerotinia sclerotiorum; [6]): 60 to 80%
- inhibition at 50 µg/mL (Sclerotinia sclerotiorum; [7]): 75%
- melting point: 199 to 201 °C

Compound: O=C(N/C(=C\c1ccccc1)C(=O)N1CCC(c2nc(CO)cs2)CC1)c1ccccc1 [Compound 31, (Z)-N-[1-[[[4-[2-(4-hydroxymethylthiazol)]]-1-piperidinyl]carbonyl]-2-phenylethenyl]benzamide]
- inhibition at 100 µg/mL [1]: 0%
- inhibition at 100 µg/mL [2]: 0%
- inhibition at 100 µg/mL [3]: 0%
- inhibition at 100 µg/mL [4]: 33%
- inhibition at 50 µg/mL (Alternaria solani): 21%
- inhibition at 50 µg/mL (Botrytis cinerea): 7%
- inhibition at 50 µg/mL (Cercospora arachidicola): 23%
- inhibition at 50 µg/mL (wheat Gibberella zeae): 7%
- inhibition at 50 µg/mL [5]: 24%
- inhibition at 50 µg/mL (Physalospora piricola): 0%
- inhibition at 50 µg/mL (Pellicularia sasakii): 5%
- inhibition at 50 µg/mL (Rhizoctonia cerealis): 16%
- inhibition at 50 µg/mL (Sclerotinia sclerotiorum; [7]): 56%
- melting point: 118 to 120 °C

Compound: COC(=O)[C@H](C)NC(=O)/C(=C/c1ccccc1)NC(=O)c1ccccc1 [Compound 34, (S,Z)-N-[1-[[1-(2-methyl propanoate)amino]carbonyl]-2-phenylethenyl]benzamide]
- inhibition at 100 µg/mL [1]: 0%
- inhibition at 100 µg/mL [2]: 0%
- inhibition at 100 µg/mL [3]: 0%
- inhibition at 100 µg/mL [4]: 50%
- inhibition at 50 µg/mL (Alternaria solani): 21%
- inhibition at 50 µg/mL (Botrytis cinerea): 24%
- inhibition at 50 µg/mL (Cercospora arachidicola): 16%
- inhibition at 50 µg/mL (wheat Gibberella zeae): 16%
- inhibition at 50 µg/mL [5]: 5%
- inhibition at 50 µg/mL (Physalospora piricola): 0%
- inhibition at 50 µg/mL (Pellicularia sasakii): 0%
- inhibition at 50 µg/mL (Rhizoctonia cerealis): 3%
- inhibition at 50 µg/mL (Sclerotinia sclerotiorum; [7]): 56%
- melting point: 147 to 148 °C

Compound: O=C(NCc1ccc(Br)cc1)/C(=C/c1ccccc1)NC(=O)c1ccccc1 [Compound 46, N-[(1Z)-2-phenyl-1-[[(4-bromophenylmethyl)amino]carbonyl]ethenyl]benzamide]
- inhibition at 100 µg/mL [1]: 33%
- inhibition at 100 µg/mL [2]: 64%
- inhibition at 100 µg/mL [3]: 41%
- inhibition at 100 µg/mL [4]: 44%
- inhibition at 50 µg/mL (Alternaria solani): 7%
- inhibition at 50 µg/mL (Botrytis cinerea): 9%
- inhibition at 50 µg/mL (Cercospora arachidicola): 18%
- inhibition at 50 µg/mL (wheat Gibberella zeae): 43%
- inhibition at 50 µg/mL [5]: 11%
- inhibition at 50 µg/mL (Physalospora piricola): 12%
- inhibition at 50 µg/mL (Pellicularia sasakii): 2%
- inhibition at 50 µg/mL (Rhizoctonia cerealis): 13%
- inhibition at 50 µg/mL (Sclerotinia sclerotiorum; [7]): 34%
- melting point: 192 to 194 °C
